Measurements from US20100227917A1, “EYE DROP CONTAINING DIBENZ[b,e]OXEPIN DERIVATIVE” (priority 2007, published 2010).

How the values were obtained:
Format in all cases: physicochemical
[1] = External observation of olopatadine hydrochloride mixtures (Test Examples 1 and 2); conditions: for External appearance after 1 hour stirring: about 23° C.; for External appearance after 43 hours: left at about 23° C.
Experimental: (§1) Each of the resulting mixtures was stirred with a magnetic stirrer at room temperature (about 23° C.) for 1 hour, and external observation and pH measurement were carried out. Then, an aqueous solution of sodium hydroxide was added to each mixture to prepare mixtures of pH 4 and 7, and external observation and pH measurement were carried out. Then, the mixtures were left at room temperature (about 23° C.) for 43 hours, and external observation, pH measurement, solubility measurement, and osmotic pressure measurement were carried out.
(§2) Each of the resulting mixtures was stirred with a magnetic stirrer at room temperature (about 23° C.) for 1 hour, and external observation and pH measurement were carried out. Then, an aqueous solution of sodium hydroxide was added to each mixture to prepare a mixture of pH 4, and external observation and pH measurement were carried out. Then, the mixture was left at room temperature (about 23° C.) for 43 hours, and external observation, pH measurement, solubility measurement, and osmotic pressure measurement were carried out in the same manner as in Test Example 1.

[2] = pH measurement
Experimental: as §1, §2

[3] = Osmotic pressure measurement with osmometer; conditions: ratio to physiological saline (293 mOsm), after 43 hours
Experimental: An osmotic pressure was measured using an osmometer (Osmostat OM6040, Arkray, Inc.).
Further, a ratio to the osmotic pressure of physiological saline was calculated according to the following equation.
(osmotic pressure ratio)=(osmotic pressure of test liquid)/(osmotic pressure of physiological saline)(293mOsm)

[4] = 100 mg in 10 mL Aqueous solution of 0.9% NaCl
[5] = 100 mg in 10 mL Buffer at pH 4.0 containing 0.9% NaCl
[6] = 100 mg in 10 mL Buffer at pH 7.0 containing 0.9% NaCl
[7] = 100 mg in 10 mL glutamic acid-sodium glutamate buffer at pH 4.0, column prepared to pH 4.0
[8] = 100 mg in 10 mL glutamic acid-sodium glutamate buffer at pH 4.0, column prepared to pH 7.0
[9] = 100 mg in 10 mL glutamic acid-sodium glutamate buffer at pH 7.0, column prepared to pH 4.0
[10] = 100 mg in 10 mL glutamic acid-sodium glutamate buffer at pH 7.0, column prepared to pH 7.0
[11] = Aqueous solution of 0.9% NaCl, prepared to pH 4
[12] = Buffer at pH 4.0 containing 0.9% NaCl, prepared to pH 4
[13] = Buffer at pH 7.0 containing 0.9% NaCl, prepared to pH 4
[14] = glutamic acid-sodium glutamate buffer at pH 4.0, prepared to pH 4.0
[15] = glutamic acid-sodium glutamate buffer at pH 4.0, prepared to pH 7.0
[16] = glutamic acid-sodium glutamate buffer at pH 7.0, prepared to pH 4.0
[17] = glutamic acid-sodium glutamate buffer at pH 7.0, prepared to pH 7.0

External appearance after 1 hour stirring [1, 4]: Turbid in white | External appearance after 1 hour stirring [1, 5]: Turbid in white | External appearance after 1 hour stirring [1, 6]: Almost clear | External appearance after 1 hour stirring [1, 7]: Clear | External appearance after 1 hour stirring [1, 8]: Clear | External appearance after 1 hour stirring [1, 9]: Clear | External appearance after 1 hour stirring [1, 10]: Clear | External appearance after pH adjustment [1, 11]: Turbid in white | External appearance after 43 hours [1, 11]: Turbid in white | External appearance after pH adjustment [1, 12]: Turbid in white | External appearance after 43 hours [1, 12]: Turbid in white | External appearance after pH adjustment [1, 13]: Almost clear | External appearance after 43 hours [1, 13]: Turbid in white | External appearance after pH adjustment [1, 14]: Clear | External appearance after 43 hours [1, 14]: Turbid in white | External appearance after pH adjustment [1, 15]: Turbid in white | External appearance after 43 hours [1, 15]: Turbid in white | External appearance after pH adjustment [1, 16]: Clear | External appearance after pH adjustment [1, 17]: Turbid in white | External appearance after 43 hours [1, 17]: Turbid in white | pH after 1 hour stirring [2, 4]: 3.0 | pH after 1 hour stirring [2, 5]: 3.6 | pH after 1 hour stirring [2, 6]: 4.1 | pH after 1 hour stirring [2, 7]: 3.3 | pH after 1 hour stirring [2, 8]: 3.3 | pH after 1 hour stirring [2, 9]: 4.0 | pH after 1 hour stirring [2, 10]: 4.0 | pH adjustment (actual measurement value) [2, 11]: 3.8 | pH after 43 hours [2, 11]: 3.7 | pH adjustment (actual measurement value) [2, 12]: 3.8 | pH after 43 hours [2, 12]: 3.8 | pH adjustment (actual measurement value) [2, 13]: 4.1 | pH after 43 hours [2, 13]: 3.9 | pH adjustment (actual measurement value) [2, 14]: 4.1 | pH after 43 hours [2, 14]: 3.9 | pH adjustment (actual measurement value) [2, 15]: 6.9 | pH after 43 hours [2, 15]: 6.9 | pH adjustment (actual measurement value) [2, 16]: 4.0 | pH after 43 hours [2, 16]: 3.7 | pH adjustment (actual measurement value) [2, 17]: 6.9 | pH after 43 hours [2, 17]: 6.9 | Osmotic pressure ratio [3, 11]: 1.085 | Osmotic pressure ratio [3, 12]: 1.167 | Osmotic pressure ratio [3, 13]: 1.201 | Osmotic pressure ratio [3, 14]: 0.290 | Osmotic pressure ratio [3, 15]: 0.403 | Osmotic pressure ratio [3, 16]: 0.270 | Osmotic pressure ratio [3, 17]: 0.379
Structure (SMILES): CN(C)CC/C=C1/c2ccccc2COc2ccc(CC(=O)O)cc21.Cl [olopatadine hydrochloride, (Z)-11-(3-dimethylaminopropylidene)-6,11-dihydrodibenz[b,e]oxepin-2-acetic acid hydrochloride]
